The values below come from BindingDB's records for PubMed 38252989 (IK Gujral Punjab Technical University).

This test concerns the target T1, Alpha-amylase 1A (Homo sapiens, UniProt P0DUB6).
T1 sequence (P0DUB6 whole entry): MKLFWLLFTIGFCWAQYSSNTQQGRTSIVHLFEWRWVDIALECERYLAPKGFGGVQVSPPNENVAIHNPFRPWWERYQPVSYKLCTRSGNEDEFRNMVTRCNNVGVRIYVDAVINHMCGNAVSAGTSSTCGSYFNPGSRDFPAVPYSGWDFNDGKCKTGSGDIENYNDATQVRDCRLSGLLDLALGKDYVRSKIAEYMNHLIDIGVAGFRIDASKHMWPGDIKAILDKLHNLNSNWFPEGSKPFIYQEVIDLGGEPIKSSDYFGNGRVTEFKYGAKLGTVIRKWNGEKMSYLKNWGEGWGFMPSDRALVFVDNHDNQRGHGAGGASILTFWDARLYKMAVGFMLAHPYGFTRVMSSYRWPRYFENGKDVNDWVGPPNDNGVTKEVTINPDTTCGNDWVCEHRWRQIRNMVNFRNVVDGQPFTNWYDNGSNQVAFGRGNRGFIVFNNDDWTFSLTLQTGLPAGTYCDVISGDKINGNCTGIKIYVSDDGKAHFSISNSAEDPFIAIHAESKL
The experiment in a line: Inhibition of Alpha-amylase (unknown origin).

Structures are written as SMILES.

`C=CCN1C(=O)SC(=Cc2ccc(Cl)cc2Cl)C1=O` came in with a 50% inhibitory concentration (IC50) of 44 nM.
The compound `O=C(O)CN1C(=O)SC(=Cc2cn(-c3ccccc3)nc2-c2ccc([N+](=O)[O-])cc2)C1=O` showed an IC50 of 4.1 nM.
For `O=C(O)CN1C(=O)SC(=Cc2ccc3c(c2)OCO3)C1=O` the value was 10 nM; for `N#Cc1ccccc1-c1ccc(N2C(=O)SC(=Cc3ccccc3Oc3ccccc3)C2=O)cc1`, 0.13 nM.
